Results published in patent US10336762B2 (priority 2017, dated 2019).
Read-outs that look alike come from different tables or passages of the source.

What was measured:
TNFα = test: cells; format: cell-based, human; details: LPS-stimulated human monocytes, read-out: EC50 TNF
IRAK4 enzyme = IRAK4 enzyme (Homo sapiens (Human), UniProt Q9NWZ3); test: biochemical; format: biochemical; details: IRAK4 enzyme, 500 μM ATP
[1] = Homo sapiens, Monocyte, TNFα content
[2] = Homo sapiens, Monocyte, TNFα by TR-FRET

Sequence of IRAK4 enzyme (Q9NWZ3 whole entry): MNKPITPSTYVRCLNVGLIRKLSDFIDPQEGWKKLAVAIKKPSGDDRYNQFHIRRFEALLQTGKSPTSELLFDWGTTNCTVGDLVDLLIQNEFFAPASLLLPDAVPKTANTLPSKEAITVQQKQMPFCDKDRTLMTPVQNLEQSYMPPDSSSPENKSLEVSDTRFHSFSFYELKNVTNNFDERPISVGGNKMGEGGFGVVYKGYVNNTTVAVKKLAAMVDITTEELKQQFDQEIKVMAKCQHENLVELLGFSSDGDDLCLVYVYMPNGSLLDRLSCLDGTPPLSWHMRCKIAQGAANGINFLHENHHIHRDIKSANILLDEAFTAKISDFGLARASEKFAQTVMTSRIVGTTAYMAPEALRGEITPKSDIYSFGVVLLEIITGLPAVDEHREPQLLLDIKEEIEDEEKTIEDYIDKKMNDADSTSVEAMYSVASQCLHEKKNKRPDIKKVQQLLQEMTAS

Structure (SMILES)	EC50 (TNFα; [1])	IC50 (IRAK4 enzyme; TR-FRET (HTRF))	IC50 (IRAK4 enzyme; TR-FRET)	EC50 (TNFα; [2])	EC50 (TNFα; TNFα content)
CC(C)(O)[C@H](F)CNC(=O)c1cnc(-c2ccc3cc(C#N)cnn23)cc1Nc1ccc2[nH]ccc2c1 [Example 576, (R)-4-((1H-indol-5-yl)amino)-6-(3-cyano-pyrrolo[1,2-b]pyridazin-7-yl)-N-(2-fluoro-3-hydroxy-3-methylbutyl) nicotinamide]	21 nM	< 1 nM			
CC(C)(O)CNC(=O)c1cnc(-c2ccc3cc(C#N)cnn23)cc1NC12CCC(O)(CC1)CC2 [Example 753, 6-(3-cyanopyrrolo[1,2-b]pyridazin-7-yl)-N-(2-hydroxy-2-methylpropyl)-4-((4-hydroxybicyclo[2.2.2]octan-1-yl)amino) nicotinamide]	225 nM	7 nM			
CN(C)C(=O)CNC(=O)c1cnc(-c2ccc3cc(C#N)cnn23)cc1NC12CCC(O)(CC1)CC2 [Example 333, 6-(3-cyanopyrrolo[1,2-b]pyridazin-7-yl)-N-(2-(dimethylamino)-2-oxo-ethyl)-4-((4-hydroxy-bicyclo[2.2.2]octan-1-yl)amino)nicotinamide]	87 nM		< 1 nM		
CC(C)(O)[C@H](F)CNC(=O)c1cnc(-c2ccc3cc(C#N)cnn23)cc1Nc1nnc(N2CCOCC2)o1 [Example 144, (R)-6-(3-cyanopyrrolo[1,2-b]pyridazin-7-yl)-N-(2-fluoro-3-hydroxy-3-methylbutyl)-4-((5-morpholino-1,3,4-oxadiazol-2-yl)amino) nicotinamide]	> 10000 nM		656 nM		
Cc1n[nH]c2cc(Nc3cc(-c4ccc5cc(C#N)cnn45)ncc3C(=O)NC[C@@H](F)C(C)(C)O)ccc12 [Example 660, (R)-6-(3-cyanopyrrolo[1,2-b]pyridazin-7-yl)-N-(2-fluoro-3-hydroxy-3-methylbutyl)-4-((3-methyl-1H-indazol-6-yl)amino) nicotinamide]	64 nM	1 nM			
CN(C)C1CCC(NC(=O)c2cnc(-c3ccc4cc(C#N)cnn34)cc2N[C@H]2CCC[C@@H](O)C2)CC1 (stereo partly drawn) [Example 366, 6-(3-cyanopyrrolo[1,2-b]pyridazin-7-yl)-N-((1r,4S)-4-(dimethylamino)cyclohexyl)-4-(((1S,3R)-3-hydroxycyclohexyl)amino) nicotinamide]	162 nM		1 nM		
CC(=O)N[C@H]1CC[C@H](NC(=O)c2cnc(-c3ccc4cc(C#N)cnn34)cc2NC(C)C)CC1 [Example 13, N-((1r,4r)-4-acetamidocyclohexyl)-6-(3-cyanopyrrolo[1,2-b]pyridazin-7-yl)-4-(isopropylamino)nicotinamide]	79 nM		< 1 nM		
CCCC(=O)NC[C@H]1C[C@H](Nc2cc(-c3ccc4cc(C#N)cnn34)ncc2C(=O)NC[C@@H](F)C(C)(C)O)C1 [Example 825, 4-(((1r,3R)-3-(butyramidomethyl)cyclo-butyl)amino)-6-(3-cyano-pyrrolo[1,2-b]pyridazin-7-yl)-N-((R)-2-fluoro-3-hydroxy-3-methylbutyl) nicotinamide]			< 1 nM	48 nM	
CNC(=O)c1cnc(-c2ccc3cc(C#N)cnn23)cc1NC12CCC(C(=O)N3CCC3)(CC1)CC2 [Example 484, 4-((4-(azetidine-1-carbonyl)bicyclo[2.2.2]octan-1-yl)amino)-6-(3-cyanopyrrolo[1,2-b]pyridazin-7-yl)-N-methyl-nicotinamide]	63 nM	1 nM			
CC1(O)CCCC(Nc2cc(-c3ccc4cc(C#N)cnn34)ncc2C(=O)NC[C@@H](F)C(C)(C)O)C1 (single isomer, unassigned) [Example 529]		1 nM			62 nM
CC(C)C(=O)N[C@H]1CC[C@H](Nc2cc(-c3ccc4cc(C#N)cnn34)ncc2C(=O)NC[C@@H](F)C(C)(C)O)CC1 [Example 298, 6-(3-cyanopyrrolo[1,2-b]pyridazin-7-yl)-N-((R)-2-fluoro-3-hydroxy-3-methylbutyl)-4-(((1r,4R)-4-isobutyramidocyclohexyl)amino)nicotinamide]	214 nM		2 nM		
CNC(=O)C1CCC(NC(=O)c2cnc(-c3ccc4cc(C#N)cnn34)cc2NC(C)C)CC1 (stereo not drawn) [Example 22, 6-(3-cyanopyrrolo[1,2-b]pyridazin-7-yl)-4-(isopropyl-amino)-N-((1r,4r)-4-(methylcarbamoyl)cyclohexyl) nicotinamide]	87 nM		< 1 nM		
CNC(=O)c1cnc(-c2ccc3cc(C#N)cnn23)cc1N[C@H]1CCC[C@@H](C(=O)NC)C1 [Example 470, 6-(3-cyanopyrrolo[1,2-b]pyridazin-7-yl)-N-methyl-4-(((1S,3R)-3-(methyl-carbamoyl)cyclohexyl)amino)nicotinamide]	440 nM	25 nM			
CC(=O)NC12CCC(NC(=O)c3cnc(-c4ccc5cc(C#N)cnn45)cc3NC(C)C)(CC1)CC2 [Example 131, N-(4-acetamido-bicyclo[2.2.2]octan-1-yl)-6-(3-cyanopyrrolo[1,2-b]pyridazin-7-yl)-4-(isopropylamino) nicotinamide]	154 nM		1 nM		
CC(C)(O)[C@H](F)CNC(=O)c1cnc(-c2ccc3cc(C#N)cnn23)cc1N[C@H]1C[C@H](COC(=O)N2CCC(F)(F)C2)C1 [Example 737, ((1R,3r)-3-((2-(3-cyano-pyrrolo[1,2-b]pyridazin-7-yl)-5-(((R)-2-fluoro-3-hydroxy-3-methylbutyl)carbamoyl)pyridin-4-yl)amino)cyclobutyl) methyl 3,3-difluoro-pyrrolidine-1-carboxylate]	26 nM	< 1 nM			
N#Cc1cnn2c(-c3cc(NC45CCC(O)(CC4)CC5)c(C(=O)NCc4ccncc4)cn3)ccc2c1 [Example 932, 6-(3-cyanopyrrolo[1,2-b]pyridazin-7-yl)-4-((4-hydroxybicyclo[2.2.2]octan-1-yl)amino)-N-(pyridin-4-ylmethyl) nicotinamide]			3 nM	168 nM	
CNC(=O)NC[C@H]1C[C@H](Nc2cc(-c3ccc4cc(C#N)cnn34)ncc2C(=O)NC[C@@H](F)C(C)(C)O)C1 [Example 788, 6-(3-cyanopyrrolo[1,2-b]pyridazin-7-yl)-N-((R)-2-fluoro-3-hydroxy-3-methylbutyl)-4-(((1r,3R)-3-((3-methylureido)methyl)cyclobutyl)amino) nicotinamide]	90 nM	< 1 nM			
CN(C)C(=O)c1ccc(Nc2cc(-c3ccc4cc(C#N)cnn34)ncc2C(=O)NC[C@@H](F)C(C)(C)O)cn1 [Example 575, (R)-5-((2-(3-cyano-pyrrolo[1,2-b]pyridazin-7-yl)-5-((2-fluoro-3-hydroxy-3-methylbutyl)carbamoyl)pyridin-4-yl)amino)-N,N-dimethyl-picolinamide]	144 nM	2 nM			
CN1CCC[C@@H](Nc2cc(-c3ccc4cc(C#N)cnn34)ncc2C(=O)NC[C@@H](F)C(C)(C)O)C1 [Example 259, 6-(3-cyanopyrrolo[1,2-b]pyridazin-7-yl)-N-((R)-2-fluoro-3-hydroxy-3-methylbutyl)-4-(((R)-1-methylpiperidin-3-yl)amino)nicotinamide]	152 nM		6 nM		
CNC(=O)c1ccc(Nc2cc(-c3ccc4cc(C#N)cnn34)ncc2C(=O)NC[C@@H](F)C(C)(C)O)cc1 [Example 350, (R)-6-(3-cyanopyrrolo[1,2-b]pyridazin-7-yl)-N-(2-fluoro-3-hydroxy-3-methylbutyl)-4-((4-(methylcarbamoyl)phenyl)amino)nicotinamide]	12 nM		< 1 nM		
CC(C)(O)[C@H](F)CNC(=O)c1cnc(-c2ccc3cc(C#N)cnn23)cc1N[C@H]1C[C@H](O)C1 [Example 169, 6-(3-cyanopyrrolo[1,2-b]pyridazin-7-yl)-N-((R)-2-fluoro-3-hydroxy-3-methylbutyl)-4-(((1r,3R)-3-hydroxycyclobutyl)amino) nicotinamide]	> 10000 nM		183 nM		
CC(C)Nc1cc(-c2ccc3cc(C#N)cnn23)ncc1C(N)=O [Example 39, 6-(3-cyanopyrrolo[1,2-b]pyridazin-7-yl)-4-(isopropylamino) nicotinamide]	507 nM		4 nM		
N#Cc1cnn2c(-c3cc(NC45CCC(O)(CC4)CC5)c(C(=O)NCC(=O)c4ccccc4)cn3)ccc2c1 [Example 811, 6-(3-cyanopyrrolo[1,2-b]pyridazin-7-yl)-4-((4-hydroxybicyclo[2.2.2]octan-1-yl)amino)-N-(2-oxo-2-phenylethyl) nicotinamide]			< 1 nM	32 nM	
CC(C)(O)[C@H](F)CNC(=O)c1cnc(-c2ccc3cc(C#N)cnn23)cc1NC1CCN(CC(F)(F)F)CC1 [Example 329, (R)-6-(3-cyanopyrrolo[1,2-b]pyridazin-7-yl)-N-(2-fluoro-3-hydroxy-3-methylbutyl)-4-((1-(2,2,2-trifluoroethyl)piperidin-4-yl)amino)nicotinamide]	62 nM		1 nM		
CC(C)(O)[C@H](F)CNC(=O)c1cnc(-c2ccc3cc(C#N)cnn23)cc1NC1CCNC(=O)C1 (stereo partly drawn) [Example 327, 6-(3-cyanopyrrolo[1,2-b]pyridazin-7-yl)-N-((R)-2-fluoro-3-hydroxy-3-methylbutyl)-4-((2-oxo-piperidin-4-yl)amino)nicotinamide]	738 nM		1 nM		
CC(C)(O)[C@H](F)CNC(=O)c1cnc(-c2ccc3cc(C#N)cnn23)cc1N[C@H]1C[C@H](CNC(=O)C2(F)CC2)C1 [Example 828, 6-(3-cyanopyrrolo[1,2-b]pyridazin-7-yl)-N-((R)-2-fluoro-3-hydroxy-3-methylbutyl)-4-(((1r,3R)-3-((1-fluorocyclopropane-1-carboxamido)methyl)cyclobutyl)amino) nicotinamide]			< 1 nM	12 nM	
CC(C)Nc1cc(-c2ccc3cc(C#N)cnn23)ncc1C(=O)NCCC1(O)CCC1 [Example 91, 6-(3-cyanopyrrolo[1,2-b]pyridazin-7-yl)-N-(2-(1-hydroxycyclobutyl)ethyl)-4-(isopropylamino) nicotinamide]	62 nM		< 1 nM		
